Measurements as given in patent publication US20170298052A1, “SUBSTITUTED OXOPYRIDINE DERIVATIVES” (BAYER PHARMA AKTIENGESELLSCHAFT, priority 2014, published 2017).

Key:
human plasma kallikrein = human plasma kallikrein (Homo sapiens, UniProt P03952); test: Determination of the plasma kallikrein activity (fluorogenic peptide substrate, AMC cleavage); format: biochemical; conditions: plasma kallikrein from Kordia 0.6 nM; substrate H-Pro-Phe-Arg-AMC; 30 min at 22° C.; read-out: IC50 [nM] (Table B, plasma kallikrein inhibition)
Method: (§1) To determine the plasma kallikrein inhibition of the substances according to the invention, a biochemical test system is used which utilizes the reaction of a peptidic plasma kallikrein substrate to determine the enzymatic activity of human plasma kallikrein. Here, plasma kallikrein cleaves from the peptic plasma kallikrein substrate the C-terminal aminomethylcoumarin (AMC), the fluorescence of which is measured. The determinations are carried out in microtitre plates.
Test substances are dissolved in dimethyl sulphoxide and serially diluted in dimethyl sulphoxide (3000 μM to 0.0078 μM; resulting final concentrations in the test: 50 μM to 0.00013 μM). 1 μl of the diluted substance solutions is placed into each of the wells of white microtitre plates from Greiner (384 wells). 20 μl of assay buffer (50 mM Tris/HCl pH 7.4; 100 mM sodium chloride solution; 5 mM of calcium chloride solution; 0.1% of bovine serum albumin) and 20 μl of plasma kallikrein from Kordia (0.6 nM in assay buffer) are then added successively. After 15 min of incubation, the enzyme reaction is started by addition of 20 μl of the substrate H-Pro-Phe-Arg-AMC dissolved in assay buffer (10 μM in assay buffer) from Bachem, the mixture is incubated at room temperature (22° C.) for 30 min and fluorescence is then measured (excitation: 360 nm, emission: 460 nm). The measured emissions of the test batches with test substance are compared to those of control batches without test substance (only dimethyl sulphoxide instead of test substance in dimethyl sulphoxide), and IC50 values are calculated from the concentration/activity relationships.

human factor XIa = target: T1, human factor XIa (Homo sapiens, UniProt P03951); test: Measurement of FXIa inhibition (fluorogenic peptide substrate, AMC cleavage); format: biochemical; conditions: factor XIa from Kordia 0.45 nM; substrate Boc-Glu(OBzl)-Ala-Arg-AMC; 30 min at 22° C.
T1 construct: purchased Kordia
Method: as §1, with “The factor XIa” for “To determine the plasma kallikrein”, “invention is determined using” for “invention,”, “system” for “system is used”, “factor XIa” for “plasma kallikrein”, “factor XIa.” for “plasma kallikrein.”
1 μl of the diluted substance solutions is placed into each of the wells of white microtitre plates from Greiner (384 wells). […] After 15 min of incubation, the enzyme reaction is started by addition of 20 μl of the factor XIa substrate Boc-Glu(OBzl)-Ala-Arg-AMC dissolved in assay buffer (10 μM in assay buffer) from Bachem, the mixture is incubated at room temperature (22° C.) for 30 min and fluorescence is then measured (excitation: 360 nm, emission: 460 nm). The measured emissions of the test batches with test substance are compared to those of control batches without test substance (only dimethyl sulphoxide instead of test substance in dimethyl sulphoxide), and IC50 values are calculated from the concentration/activity relationships.

Chain of human plasma kallikrein (P03952 391-638 limits assumed): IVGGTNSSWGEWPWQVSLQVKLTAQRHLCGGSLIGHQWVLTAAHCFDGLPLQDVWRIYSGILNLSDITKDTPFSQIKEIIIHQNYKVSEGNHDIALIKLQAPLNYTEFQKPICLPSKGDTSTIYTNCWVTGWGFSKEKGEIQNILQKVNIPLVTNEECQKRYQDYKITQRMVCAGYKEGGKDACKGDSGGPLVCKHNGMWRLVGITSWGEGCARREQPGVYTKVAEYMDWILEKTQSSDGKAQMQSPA
Chain of human plasma kallikrein (P03952 20-390 partner limits assumed): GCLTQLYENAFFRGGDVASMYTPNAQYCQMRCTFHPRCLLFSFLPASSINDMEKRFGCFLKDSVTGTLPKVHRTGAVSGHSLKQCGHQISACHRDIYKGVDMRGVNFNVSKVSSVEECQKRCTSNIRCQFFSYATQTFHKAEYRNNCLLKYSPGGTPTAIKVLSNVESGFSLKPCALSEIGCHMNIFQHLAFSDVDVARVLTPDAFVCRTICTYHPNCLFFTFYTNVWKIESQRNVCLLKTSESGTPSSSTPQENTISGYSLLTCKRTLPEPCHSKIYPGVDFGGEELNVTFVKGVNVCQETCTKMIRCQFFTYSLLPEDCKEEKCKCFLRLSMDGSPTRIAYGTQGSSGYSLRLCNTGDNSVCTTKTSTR
T1 sequence (P03951 388-625 limits assumed): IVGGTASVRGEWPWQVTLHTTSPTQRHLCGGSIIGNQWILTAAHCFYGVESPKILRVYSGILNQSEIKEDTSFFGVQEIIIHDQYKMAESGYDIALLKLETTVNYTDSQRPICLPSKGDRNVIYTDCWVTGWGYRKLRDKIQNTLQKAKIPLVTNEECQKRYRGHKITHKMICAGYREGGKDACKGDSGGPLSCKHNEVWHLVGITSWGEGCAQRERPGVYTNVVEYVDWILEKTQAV
T1 sequence (P03951 19-387 partner limits assumed): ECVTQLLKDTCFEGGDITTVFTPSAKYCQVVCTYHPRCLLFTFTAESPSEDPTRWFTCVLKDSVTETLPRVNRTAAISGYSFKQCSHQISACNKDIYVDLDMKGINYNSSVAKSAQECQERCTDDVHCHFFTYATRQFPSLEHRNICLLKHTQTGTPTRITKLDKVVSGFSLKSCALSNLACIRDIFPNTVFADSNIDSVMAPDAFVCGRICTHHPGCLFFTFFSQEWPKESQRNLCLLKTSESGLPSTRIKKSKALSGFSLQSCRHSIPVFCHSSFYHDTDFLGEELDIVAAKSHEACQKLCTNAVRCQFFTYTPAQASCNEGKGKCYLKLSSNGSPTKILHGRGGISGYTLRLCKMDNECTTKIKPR

Row | SMILES | IC50 (human plasma kallikrein) [nM] | IC50 (human factor XIa) [nM]
1 | CCC(C(=O)Nc1ccc(C(=O)NC)c(Cl)c1)n1cc(OC)c(-c2cc(Cl)ccc2C#N)cc1=O (racemic) [Example 27, 2-Chloro-4-({2-[4-(5-chloro-2-cyanophenyl)-5-methoxy-2-oxopyridin-1(2H)-yl]butanoyl}amino)-N-methylbenzamide] | 71 | 50
2 | N#Cc1ccc(Cl)cc1-c1cc(=O)n(C(C[C@@H]2CCCCO2)C(=O)Nc2ccc(C(N)=O)c(F)c2)cc1Cl (stereo partly shown) [Example 14] | 210 | 25
3 | COc1cn(C(Cc2cccnc2)C(=O)Nc2ccc(C(N)=O)c(F)c2)c(=O)cc1-c1cc(Cl)ccc1C#N (stereo not shown) [Example 9] | 6 | 11
4 | COc1cn(C(Cc2nnc(C3CC3)o2)C(=O)Nc2ccc(C(N)=O)c(F)c2)c(=O)cc1-c1cc(Cl)ccc1C#N (racemic) [Example 39, 4-({2-[4-(5-Chloro-2-cyanophenyl)-5-methoxy-2-oxopyridin-1(2H)-yl]-3-(5-cyclopropyl-1,3,4-oxadiazol-2-yl)propanoyl}amino)-2-fluorobenzamide] | 38 | 70
5 | N#Cc1ccc(Cl)cc1-c1cc(=O)n(C(Cc2cnco2)C(=O)Nc2ccc(C(N)=O)c(F)c2)cc1Cl (stereo not shown) [Example 4] | 140 | 52
6 | COc1cn(C(Cc2ccn(C)n2)C(=O)Nc2ccc(C(N)=O)c(F)c2)c(=O)cc1-c1cc(Cl)ccc1C#N (racemic) [Example 38, 4-({2-[4-(5-Chloro-2-cyanophenyl)-5-methoxy-2-oxopyridin-1(2H)-yl]-3-(1-methyl-1H-pyrazol-3-yl)propanoyl}amino)-2-fluorobenzamide] | 3.6 | 6.2
7 | CCC(C(=O)Nc1ccc(C(=O)NC)c(F)c1)n1cc(OC)c(-c2cc(Cl)ccc2C#N)cc1=O (stereo not shown) [Example 8] | 30 | 12
8 | N#Cc1ccc(Cl)cc1-c1cc(=O)n(C(Cc2cocn2)C(=O)Nc2ccc(C(N)=O)c(F)c2)cc1Cl (stereo not shown) [Example 2] | 260 | 190
9 | CNC(=O)c1ccc(NC(=O)C(Cc2ccccn2)n2cc(OC)c(-c3cc(Cl)ccc3C#N)cc2=O)cc1F (racemic) [Example 30, 4-({2-[4-(5-Chloro-2-cyanophenyl)-5-methoxy-2-oxopyridin-1(2H)-yl]-3-(pyridin-2-yl)propanoyl}amino)-2-fluoro-N-methylbenzamide] | 8.2 | 9.7
10 | COc1cn(C(Cc2cnco2)C(=O)Nc2ccc(C(N)=O)c(F)c2)c(=O)cc1-c1cc(Cl)ccc1C#N (stereo not shown) [Example 5] | 14 | 14
11 | COc1cn(C(Cc2cnco2)C(=O)Nc2cc(F)c(C(N)=O)c(F)c2)c(=O)cc1-c1cc(Cl)ccc1C#N (racemic) [Example 40, 4-({2-[4-(5-Chloro-2-cyanophenyl)-5-methoxy-2-oxopyridin-1(2H)-yl]-3-(1,3-oxazol-5-yl)propanoyl}amino)-2,6-difluorobenzamide] | 27 | 34
12 | N#Cc1ccc(Cl)cc1-c1cc(=O)n(C(Cc2cnco2)C(=O)Nc2ccc(C(N)=O)c(F)c2)cc1OC(F)F (stereo not shown) [Example 1] | 490 | 240
13 | N#Cc1ccc(Cl)cc1-c1cc(=O)n(C(Cc2ccccn2)C(=O)Nc2ccc(C(N)=O)c(F)c2)cc1OC(F)F (stereo not shown) [Example 11] | 490 | 160
14 | COc1cn(C(Cc2ccncc2)C(=O)Nc2ccc(C(N)=O)c(F)c2)c(=O)cc1-c1cc(Cl)ccc1C#N (stereo not shown) [Example 10] | 7 | 9
15 | CNC(=O)c1ccc(NC(=O)C(Cc2ccn(C)n2)n2cc(OC)c(-c3cc(C)ccc3C#N)cc2=O)cc1F (racemic) [Example 44, 4-({2-[4-(2-Cyano-5-methylphenyl)-5-methoxy-2-oxopyridin-1(2H)-yl]-3-(1-methyl-1H-pyrazol-3-yl)propanoyl}amino)-2-fluoro-N-methylbenzamide] | 12 | 19
16 | COc1cn(C(Cc2cnco2)C(=O)Nc2ccc(C(N)=O)c(F)c2)c(=O)cc1-c1cc(Cl)ccc1C#N (single isomer, unassigned) [Example 45, 4-({2-[4-(5-Chloro-2-cyanophenyl)-5-methoxy-2-oxopyridin-1(2H)-yl]-3-(1,3-oxazol-5-yl)propanoyl}amino)-2-fluorobenzamide] | 4 | 6.4
17 | COc1cc(NC(=O)C(Cc2ccn(C)n2)n2cc(OC)c(-c3cc(Cl)ccc3C#N)cc2=O)ccc1C(N)=O (racemic) [Example 46, 4-({2-[4-(5-Chloro-2-cyanophenyl)-5-methoxy-2-oxopyridin-1(2H)-yl]-3-(1-methyl-1H-pyrazol-3-yl)propanoyl}amino)-2-methoxybenzamide] | 2.4 | 8.9

The next lines start with the values.

Row | IC50 (human plasma kallikrein) [nM] | IC50 (human factor XIa) [nM] | SMILES
18 | 160 | 310 | COCCC(C(=O)Nc1ccc(C(N)=O)c(F)c1)n1cc(OC)c(-c2cc(Cl)c(F)cc2C#N)cc1=O (racemic) [Example 25, 4-({2-[4-(5-Chloro-2-cyano-4-fluorophenyl)-5-methoxy-2-oxopyridin-1(2H)-yl]-4-methoxy-butanoyl}amino)-2-fluorobenzamide]
19 | 7.4 | 12.5 | COc1cn(C(CCOC(C)C)C(=O)Nc2ccc(C(N)=O)c(F)c2)c(=O)cc1-c1cc(Cl)ccc1C#N (racemic) [Example 19, 4-({2-[4-(5-Chloro-2-cyanophenyl)-5-methoxy-2-oxopyridin-1(2H)-yl]-4-isopropoxybutanoyl}amino)-2-fluorobenzamide]
20 | 12 | 21 | COc1cn(C(CCOCC(F)F)C(=O)Nc2ccc(C(N)=O)c(F)c2)c(=O)cc1-c1cc(Cl)ccc1C#N (racemic) [Example 22, 4-({2-[4-(5-Chloro-2-cyanophenyl)-5-methoxy-2-oxopyridin-1(2H)-yl]-4-(2,2-difluoroethoxy)-butanoyl}amino)-2-fluorobenzamide]
21 | 6.2 | 12 | COc1cn(C(Cc2cc(C)on2)C(=O)Nc2ccc(C(N)=O)c(F)c2)c(=O)cc1-c1cc(Cl)ccc1C#N (racemic) [Example 37, 4-({2-[4-(5-Chloro-2-cyanophenyl)-5-methoxy-2-oxopyridin-1(2H)-yl]-3-(5-methyl-1,2-oxazol-3-yl)propanoyl}amino)-2-fluorobenzamide]
22 | 6.1 | 7.4 | COc1cn(C(CCOC2CCC2)C(=O)Nc2ccc(C(N)=O)c(F)c2)c(=O)cc1-c1cc(Cl)ccc1C#N (racemic) [Example 20, 4-({2-[4-(5-Chloro-2-cyanophenyl)-5-methoxy-2-oxopyridin-1(2H)-yl]-4-(cyclobutyloxy)-butanoyl}amino)-2-fluorobenzamide]
23 | 110 | 47 | COCCC(C(=O)Nc1ccc(C(N)=O)c(F)c1)n1cc(Cl)c(-c2cc(Cl)ccc2C#N)cc1=O (stereo not shown) [Example 6]
24 | 11 | 14 | CCOCCC(C(=O)Nc1ccc(C(N)=O)c(F)c1)n1cc(OC)c(-c2cc(Cl)ccc2C#N)cc1=O (racemic) [Example 18, 4-({2-[4-(5-Chloro-2-cyanophenyl)-5-methoxy-2-oxopyridin-1(2H)-yl]-4-ethoxybutanoyl}amino)-2-fluorobenzamide]
25 | 25 | 27 | COCCC(C(=O)Nc1ccc(C(N)=O)c(F)c1)n1cc(OC)c(-c2cc(C)ccc2C#N)cc1=O (single isomer, unassigned) [Example 24, 4-({2-[4-(2-Cyano-5-methylphenyl)-5-methoxy-2-oxopyridin-1(2H)-yl]-4-methoxybutanoyl}amino)-2-fluorobenzamide]
26 | 36 | 25 | CCC(C(=O)Nc1ccc(C(N)=O)c(F)c1)n1cc(OC)c(-c2cc(Cl)ccc2C#N)cc1=O (stereo not shown) [Example 7]
27 | 9.7 |  | COCCC(C(=O)Nc1ccc(C(N)=O)c(F)c1)n1cc(OC)c(-c2cc(Cl)ccc2C#N)cc1=O (racemic) [Example 31, 4-({2-[4-(5-Chloro-2-cyanophenyl)-5-methoxy-2-oxopyridin-1(2H)-yl]-4-methoxybutanoyl}amino)-2-fluorobenzamide]
28 | 27 | 28 | COCCC(C(=O)Nc1ccc(C(N)=O)c(F)c1)n1cc(OC)c(-c2cc(C)ccc2C#N)cc1=O (racemic) [Example 49, 4-({2-[4-(2-Cyano-5-methylphenyl)-5-methoxy-2-oxopyridin-1(2H)-yl]-4-methoxybutanoyl}amino)-2-fluorobenzamide]
